In publication PMC9085681, “Towards Optimized Bioavailability of ^99mTc-Labeled Barbiturates for Non-invasive Imaging of Matrix Metalloproteinase Activity” (Molecular Imaging and Biology, 2021):
Structures can show the parent of a compound that is named as a salt. Where two headings read alike, the source gives them in different places.

How the values were obtained:
[1] = distribution coefficient (logDexp), 1-octanol / PBS-buffer; format: physicochemical; conditions: 1-octanol / PBS-buffer pH = 7.4, 99mTc-labeled compound
Procedure: The serum stability of all radiolabeled compounds was evaluated by incubation in human and murine serum at 37 °C for up to 120 min and analyzed by HPLC. The distribution coefficients (logDexp) were determined in a two-phase system consisting of 1-octanol and PBS-buffer (pH = 7.4) according to the literature.
Following a method described by Prante et al.[13], the distribution coefficient (logDexp) of the radioactive compound was determined in a two-phase system consisting of 1-octanol and PBS-buffer (pH = 7.4) to determine the lipophilicity. For this purpose, the corresponding ligand (~ 20 kBq) was dissolved in buffer (500 μL). 1-Octanol (500 μL) was added and the mixture was shaken at room temperature for 1 min. To achieve phase separation, the system was centrifuged for 2 min at 3000 rpm. Subsequently a part of the octanol phase (400 μL) was removed and buffer (400 μL) was added. The combined phases were shaken and layers were separated according to the description above. Aliquots of the buffer and octanol layers (3 × 100 μL from every layer) were taken to measure radioactivity in a γ-counter. The measurement provided the activity in counts per minute (cpm), the values were decay corrected. By calculating the quotient of cpm (1-Octanol)cpm (PBS) the logDexp can be determined as logcpm (1-Octanol)cpm (PBS).

[2] = target: MMP-9 (Homo sapiens, UniProt P14780); assay: in vitro MMP inhibition assay (fluorogenic substrate, protocol of Huang et al.); format: biochemical
Procedure: (§1) In order to evaluate the affinity of the new barbiturate-based compounds towards MMPs, an in vitro inhibition study was performed. The IC50-values were determined for MMP-2, MMP-8, MMP-9, MMP-13, and […] using the protocol from Huang et al. Additionally, the corresponding precursors were also measured and outlined in the SI for comparison.
(§2) To determine the relative potency of new inhibitors in terms of IC50-values the method developed by Huang et al. was applied in an in vitro inhibition study.[14] Compounds of interest were evaluated regarding affinity to MMP-2, -8, -9, -13 and -14 using the artificial MMP-substrate (7-Methoxycoumarine-4-yl)-acetyl-Pro-Leu-Gly-Leu-[3-(2,4-dinitrophenyl)-l-2,3-diaminopropionyl]-Ala-Arg-NH2 (R&D Systems, Minneapolis, USA). The activated form of the corresponding MMPs (2 nM each) were incubated at 37 °C with the barbiturate derivatives in different concentrations (10 pM-1 mM) in TRIS-buffer (50 mM, pH = 7.5), sodium chloride (0.2M), calcium chloride (5 mM), zinc sulfate (20 µM) and Brij® (0.05%) for 30 min. Samples of this mixture (90 µL) were added to the substrate (50 µM, 10 µL) at 37 °C and the increase of fluorescence as a function of time was measured using a TriStar² LB 942 Analyzers (Berthold Technologies, λEx = 330 nm, λEm = 390 nm). The linear change of relative fluorescence after 10 min was plotted as a function of the concentration of the used inbhibitor. The IC50-values were determined by non-linear regression using the Grace 5.1.8 software (Linux).

[3] = target: MMP-8 (Homo sapiens, UniProt P22894); assay: as above; format: biochemical
Procedure: as §1, §2

[4] = target: MMP-13 (Homo sapiens, UniProt P45452); assay: as above; format: biochemical
Procedure: as §1, §2

[5] = target: MMP-14 (Homo sapiens, UniProt P50281); assay: as above; format: biochemical
Procedure: as §1, §2

[6] = target: T1, MMP-2 (Homo sapiens, UniProt P08253); assay: as above; format: biochemical
T1 sequence (P08253 110-660): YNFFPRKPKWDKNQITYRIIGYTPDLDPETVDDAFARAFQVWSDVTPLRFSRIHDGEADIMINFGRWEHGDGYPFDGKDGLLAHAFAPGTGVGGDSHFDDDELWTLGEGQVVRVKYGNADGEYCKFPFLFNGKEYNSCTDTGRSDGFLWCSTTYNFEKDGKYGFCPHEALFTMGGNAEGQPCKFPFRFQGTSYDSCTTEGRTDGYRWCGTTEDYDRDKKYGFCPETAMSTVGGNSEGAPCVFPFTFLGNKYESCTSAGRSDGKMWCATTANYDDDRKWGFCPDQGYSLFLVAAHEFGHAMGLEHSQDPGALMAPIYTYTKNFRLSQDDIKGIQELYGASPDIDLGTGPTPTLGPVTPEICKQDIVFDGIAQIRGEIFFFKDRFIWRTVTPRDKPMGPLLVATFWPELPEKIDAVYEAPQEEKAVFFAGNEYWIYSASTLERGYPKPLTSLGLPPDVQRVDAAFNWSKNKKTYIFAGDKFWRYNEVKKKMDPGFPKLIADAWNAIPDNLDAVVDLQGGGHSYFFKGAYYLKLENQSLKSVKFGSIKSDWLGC
Procedure: as §1, §2

[7] = activated MMP 2 nM, 37 °C, 30 min preincubation, non-radioactive compound, read-out: IC50 MMP-9
[8] = activated MMP 2 nM, 37 °C, 30 min preincubation, non-radioactive compound, read-out: IC50 MMP-8
[9] = activated MMP 2 nM, 37 °C, 30 min preincubation, non-radioactive compound, read-out: IC50 MMP-13
[10] = activated MMP 2 nM, 37 °C, 30 min preincubation, non-radioactive compound, read-out: IC50 MMP-14
[11] = activated MMP 2 nM, 37 °C, 30 min preincubation, non-radioactive compound, read-out: IC50 MMP-2

Chain of MMP-8 (P22894 101-467, species assumed): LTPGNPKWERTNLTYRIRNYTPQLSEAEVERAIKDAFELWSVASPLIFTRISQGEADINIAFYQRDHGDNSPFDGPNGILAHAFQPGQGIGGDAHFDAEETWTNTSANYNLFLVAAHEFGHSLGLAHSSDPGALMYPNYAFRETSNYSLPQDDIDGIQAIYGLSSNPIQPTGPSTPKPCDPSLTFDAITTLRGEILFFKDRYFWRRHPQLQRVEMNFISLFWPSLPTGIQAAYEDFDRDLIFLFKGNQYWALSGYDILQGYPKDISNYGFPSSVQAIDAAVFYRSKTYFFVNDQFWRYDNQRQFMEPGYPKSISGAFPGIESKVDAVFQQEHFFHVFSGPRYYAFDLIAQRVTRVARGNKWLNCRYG
Chain of MMP-9 (P14780 107-707 limits assumed, species assumed): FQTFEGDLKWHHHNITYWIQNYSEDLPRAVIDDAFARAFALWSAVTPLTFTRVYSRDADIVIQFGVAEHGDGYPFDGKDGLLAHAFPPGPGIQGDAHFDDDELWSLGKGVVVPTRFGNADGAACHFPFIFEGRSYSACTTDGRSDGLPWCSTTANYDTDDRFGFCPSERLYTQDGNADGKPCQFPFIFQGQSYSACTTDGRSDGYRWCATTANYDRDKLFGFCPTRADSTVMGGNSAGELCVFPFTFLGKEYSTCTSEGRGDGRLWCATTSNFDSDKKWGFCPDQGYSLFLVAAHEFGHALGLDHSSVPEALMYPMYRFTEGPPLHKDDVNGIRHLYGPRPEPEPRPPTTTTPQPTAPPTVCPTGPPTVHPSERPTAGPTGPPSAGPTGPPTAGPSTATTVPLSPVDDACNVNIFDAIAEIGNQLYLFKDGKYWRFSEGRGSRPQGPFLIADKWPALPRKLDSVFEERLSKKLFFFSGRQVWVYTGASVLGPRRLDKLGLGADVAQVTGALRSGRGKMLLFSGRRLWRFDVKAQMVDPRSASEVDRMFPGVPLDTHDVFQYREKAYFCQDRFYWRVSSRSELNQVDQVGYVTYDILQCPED

Row | Compound | LogD (compound labeled by [^99mTc]) [1] | IC50 [2, 7] [nM] | IC50 [3, 8] [nM] | IC50 [4, 9] [nM] | IC50 [5, 10] [nM] | IC50 [6, 11] [nM] | also measured
1 | N[C@@H](Cc1cn(CCOCCOCCOCCN2CCN(C3(c4ccc(Oc5ccccc5)cc4)C(=O)NC(=O)NC3=O)CC2)nn1)C(=O)[O][Re](=[C]=O)(=[C]=O)=[C]=O [MEA39, (S)-2-Amino-3-[1-(2-{2-[2-(2-{4-[2,4,6-trioxo-5-(4-phenoxyphenyl)-hexahydropyrimidine-5-yl]piperazine-1-yl}ethoxy)ethoxy]ethoxy}ethyl)-1H-1,2,3-triazol-4-yl]propionic acid-carbonyl rhenium(I)] | 0.79 ± 0.03 | 0.9 ± 0.1 | 28 ± 7 | 2 ± 0.3 | 5.9 ± 0.7 | 2 ± 0.5 | 
2 | NCCCC[C@H](NCc1cn(CCOCCOCCOCCN2CCN(C3(c4ccc(Oc5ccccc5)cc4)C(=O)NC(=O)NC3=O)CC2)nn1)C(=O)[O-].O=[C]=[Re+](=[C]=O)=[C]=O [MEA61, {[1-(2-{2-[2-(2-{4-[2,4,6-Trioxo-5-(4-phenoxyphenyl)hexahydropyrimidin-5-yl]piperazin-1-yl}ethoxy)ethoxy]ethoxy}ethyl)-1H-1,2,3-triazol-4-yl]methyl}-L-lysinate tricarbonylrhenium(I)] | 0.35 ± 0.23 | 8 ± 0.5 | 5.5 ± 0.4 | 26 ± 0.6 | 14 ± 0.8 | 3.6 ± 0.7 | 
3 | N[C@@H](Cc1cn(CCOCCOCCOCCN2CCN(C3(c4ccc(Oc5ccccc5)cc4)C(=O)NC(=O)NC3=O)CC2)nn1)C(=O)O [compound 14, (S)-2-Amino-3-[1-(2-{2-[2-(2-{4-[2,4,6-trioxo-5-(4-phenoxyphenyl)-hexahydropyrimidine-5-yl]piperazine-1-yl}ethoxy)ethoxy]ethoxy}ethyl)-1H-1,2,3-triazol-4-yl]propionic acid potassium salt] |  |  |  |  |  |  | IC50 ([2]; read-out: IC50 MMP-9, activated MMP 2 nM, 37 °C, 30 min preincubation, non-radioactive compound): 1.4 ± 0.3 nM; IC50 ([3]; read-out: IC50 MMP-8, activated MMP 2 nM, 37 °C, 30 min preincubation, non-radioactive compound): 3.6 ± 2.6 nM; IC50 ([4]; read-out: IC50 MMP-13, activated MMP 2 nM, 37 °C, 30 min preincubation, non-radioactive compound): 27 ± 9 nM; IC50 ([5]; read-out: IC50 MMP-14, activated MMP 2 nM, 37 °C, 30 min preincubation, non-radioactive compound): 1.5 ± 0.4 nM; IC50 ([6]; read-out: IC50 MMP-2, activated MMP 2 nM, 37 °C, 30 min preincubation, non-radioactive compound): 0.6 ± 0.1 nM
4 | NCCCC[C@H](NCc1cn(CCOCCOCCOCCN2CCN(C3(c4ccc(Oc5ccccc5)cc4)C(=O)NC(=O)NC3=O)CC2)nn1)C(=O)O [compound 17, {[1-(2-{2-[2-(2-{4-[2,4,6-Trioxo-5-(4-phenoxyphenyl)hexahydropyrimidin-5-yl]piperazin-1-yl}ethoxy)ethoxy]ethoxy}ethyl)-1H-1,2,3-triazol-4-yl]methyl}-L-lysinate] |  |  |  |  |  |  | IC50 [2]: 10 ± 2 nM; IC50 [3]: 18 ± 3 nM; IC50 [4]: 58 ± 9 nM; IC50 [5]: 19 ± 2 nM; IC50 [6]: 7 ± 3 nM
